Experimental data published in ChEMBL document CHEMBL5376005, “Gut Metabolite Indoxyl Sulfate Has Selective Deleterious and Anticancer Effect on Colon Cancer Cells” (J Med Chem, 2023).
Counter-ions that a name gives are not always drawn. Active and inactive are the calls of the source. The calls are words filed in the database; no cut-off is given here.

Legend:
[1] = test system: HT-29; experiment: Cytotoxicity against human HT-29 cells assessed as reduction in cell viability measured after 24 to 72 hrs by MTT assay; type: functional, cell-based; conditions: dose 0.01-10 mM, time 24-72 hrs
[2] = Toxicity in wild type BALB/c mouse assessed as inflammatory symptoms by measuring change in IL-17 level at 100 mM, REC measured for 0 to 3 months by ELISA; conditions: in vivo, other, 100000 µM, time 0-3 months
[3] = test system: HT-29; experiment: Cytotoxicity against human HT-29 cells assessed as reduction in cell viability at 0.01 to 10 mM by MTT assay; type: functional, cell-based; conditions: dose 0.01-10 mM, time 24-72 hrs, TDE = time-dependent effect
[4] = Toxicity in wild type BALB/c mouse assessed as change in spleen length at 100 mM, ip measured after 12 weeks; type: organism-based; conditions: in vivo, 2016 h, 100000 µM
[5] = test system: HCT-116; experiment: Cytotoxicity against human HCT-116 cells assessed as reduction in colony formation pretreated for 48 hrs and further incubated for 10 days with media replacement for every alternate day; type: functional, cell-based; conditions: dose 1.25-10 mM
[6] = test system: HT-29; experiment: Cytotoxicity against human HT-29 cells assessed as reduction in colony formation pretreated for 48 hrs and further incubated for 10 days with media replacement for every alternate day; type: functional, cell-based; conditions: dose 1.25-10 mM
[7] = test system: HCT-116; experiment: Induction of morphological changes in human HCT-116 cells assessed as formation of intracellular vesicles at 1.25 to 10 mM incubated for 24 to 72 hrs by bright field microscopy analysis; type: functional, cell-based; conditions: dose 1.25-10 mM, time 24-72 hrs
[8] = test system: HT-29; experiment: Induction of apoptosis in human HT-29 cells assessed as increase in apoptotic cells at 10 mM incubated for 48 hrs by annexin V-FITC/PI staining based flow cytometry analysis (reference value: 3%); type: functional
[9] = test system: HT-29; experiment: Induction of ROS production in human HT-29 cells incubated for 48 hrs by DHE staining based analysis; type: functional, cell-based
[10] = test system: HCT-116; experiment: Induction of morphological changes in human HCT-116 cells assessed as loss of adhesion with free floating in medium at 10 mM incubated for 24 to 72 hrs by bright field microscopy analysis; type: functional, cell-based; conditions: time 24-72 hrs
[11] = test system: HT-29; experiment: Cytotoxicity against human HT-29 cells assessed as cell viability at 10 mM measured after 48 hrs by MTT assay (reference value: 100%); type: functional; conditions: HT-29, 48 h, read-out: Activity
[12] = test system: HT-29; experiment: Cytotoxicity against human HT-29 cells assessed as cell viability at 10 mM measured after 72 hrs by MTT assay (reference value: 100%); type: functional; conditions: HT-29, 72 h, read-out: Activity
[13] = Toxicity in wild type BALB/c mouse assessed as inflammatory symptoms by measuring change in IL-1beta level at 100 mM, ip measured for 0 to 3 months by ELISA; type: organism-based; conditions: in vivo, 100000 µM, time 0-3 months
[14] = test system: Cell membrane; experiment: Induction of membrane integrity loss in human HT-29 cells assessed as increase in LDH release in supernatant incubated for 48 hrs by absorbance based assay; type: subcellular; conditions: dose 1.25-10 mM
[15] = Toxicity in wild type BALB/c mouse assessed as change in intestinal length at 100 mM, REC measured after 12 weeks; type: tissue-based, Intestine; conditions: in vivo, other, 2016 h, 100000 µM
[16] = test system: HCT-116; experiment: Cytotoxicity against human HCT-116 cells assessed as cell viability at 10 mM measured after 48 hrs by MTT assay (reference value: 100%); type: functional; conditions: HCT-116, 48 h, read-out: Activity
[17] = test system: HCT-116; experiment: Cytotoxicity against human HCT-116 cells assessed as cell viability at 10 mM measured after 72 hrs by CellTiter-Glo luminescent cell viability assay (reference value: 100%); type: functional; conditions: HCT-116, 72 h, read-out: Activity
[18] = Toxicity in wild type BALB/c mouse assessed as histological change in rectum at 100 mM, REC measured after 12 weeks by H and E staining based light microscopic analysis; conditions: in vivo, other, 2016 h, 100000 µM
[19] = test system: HCT-116; experiment: Cytotoxicity against human HCT-116 cells assessed as reduction in cell viability at 0.01 to 10 mM by CellTiter-Glo luminescent cell viability assay; type: functional, cell-based; conditions: dose 0.01-10 mM, time 48-72 hrs, TDE = time-dependent effect
[20] = Toxicity in wild type BALB/c mouse assessed as inflammatory symptoms by measuring change in TNFalpha level at 100 mM, REC measured for 0 to 3 months by ELISA; conditions: in vivo, other, 100000 µM, time 0-3 months
[21] = test system: HCT-116; experiment: Induction of cell cycle arrest in human HCT-116 cells assessed as increase in proportion of cells at G2/M phase at 10 mM incubated for 48 hrs by RNase A/Triton X-100/PI staining based flow cytometry analysis relative to control; type: functional
[22] = test system: HT-29; experiment: Cytotoxicity against human HT-29 cells assessed as reduction in cell viability measured after 48 to 72 hrs by CellTiter-Glo luminescent cell viability assay; type: functional, cell-based; conditions: dose 0.01-10 mM, time 48-72 hrs
[23] = Toxicity in wild type BALB/c mouse assessed as inflammatory symptoms by measuring change in TNFalpha level at 100 mM, ip measured for 0 to 3 months by ELISA; type: organism-based; conditions: in vivo, 100000 µM, time 0-3 months
[24] = test system: HCT-116; experiment: Induction of apoptosis in human HCT-116 cells assessed as increase in apoptotic cells at 10 mM incubated for 48 hrs by annexin V-FITC/PI staining based flow cytometry analysis (reference value: 3%); type: functional
[25] = Toxicity in wild type BALB/c mouse assessed as change in intestinal length at 100 mM, ip measured after 12 weeks; type: organism-based, Intestine; conditions: in vivo, 2016 h, 100000 µM
[26] = Toxicity in wild type BALB/c mouse assessed as histological change in rectum at 100 mM, ip measured after 12 weeks by H and E staining based light microscopic analysis; type: organism-based; conditions: in vivo, 2016 h, 100000 µM
[27] = Toxicity in wild type BALB/c mouse assessed as inflammatory symptoms by measuring change in fecal consistency at 100 mM, ip measured after 12 weeks; type: organism-based; conditions: in vivo, 2016 h, 100000 µM
[28] = test system: HCT-116; experiment: Induction of DNA damage in human HCT-116 cells by comet assay; type: functional, cell-based
[29] = test system: HCT-116; experiment: Induction of morphological changes in human HCT-116 cells assessed as detachment from substrate at 1.25 to 10 mM incubated for 24 to 72 hrs by bright field microscopy analysis; type: functional, cell-based; conditions: dose 1.25-10 mM, time 24-72 hrs
[30] = test system: HT-29; experiment: Induction of cell cycle arrest in human HT-29 cells assessed as increase in proportion of cells at G2/M phase at 10 mM incubated for 48 hrs by RNase A/Triton X-100/PI staining based flow cytometry analysis relative to control; type: functional
[31] = test system: HT-29; experiment: Induction of cell cycle arrest in human HT-29 cells assessed as increase in proportion of cells at G2/M phase at 5 mM incubated for 48 hrs by RNase A/Triton X-100/PI staining based flow cytometry analysis relative to control; type: functional
[32] = test system: HCT-116; experiment: Cytotoxicity against human HCT-116 cells assessed as reduction in cell viability measured after 24 to 72 hrs by MTT assay; type: functional, cell-based; conditions: dose 0.01-10 mM, time 24-72 hrs
[33] = test system: Cell membrane; experiment: Induction of membrane integrity loss in human HCT-116 cells assessed as LDH release in supernatant at 5 mM incubated for 48 hrs by absorbance based assay relative to control; type: subcellular
[34] = test system: HCT-116; experiment: Cytotoxicity against human HCT-116 cells assessed as reduction in cell viability at 0.01 to 10 mM by MTT assay; type: functional, cell-based; conditions: dose 0.01-10 mM, time 24-72 hrs, TDE = time-dependent effect
[35] = Toxicity in wild type BALB/c mouse assessed as change in spleen length at 100 mM, REC measured after 12 weeks; conditions: in vivo, other, 2016 h, 100000 µM

Structure (SMILES): O=S(=O)(O)Oc1c[nH]c2ccccc12 [INDOXYL SULFATE]
- Activity [1]: Dose-Dependent Effect
- Activity [2]: Non-Toxic
- Activity [3]: Tde
- Activity [4]: Non-Toxic
- Activity [5]: Dose-Dependent Effect
- Activity [6]: Dose-Dependent Effect
- Activity [7]: Active
- Activity [8]: 12%
- Activity [9]: inactive
- Activity [10]: Active
- viability at 10000 µM [11]: 30%
- viability at 10000 µM [12]: 17%
- Activity [13]: Non-Toxic
- Activity [14]: Dose-Dependent Effect
- Activity [15]: Non-Toxic
- viability at 10000 µM [16]: 7%
- viability at 10000 µM [17]: 3%
- Activity [18]: Non-Toxic
- Activity [19]: Tde
- Activity [20]: Non-Toxic
- Activity [21]: 22.7%
- Activity [22]: Dose-Dependent Effect
- Activity [23]: Non-Toxic
- Activity [24]: 13%
- Activity [25]: Non-Toxic
- Activity [26]: Non-Toxic
- Activity [27]: Non-Toxic
- Activity [28]: inactive
- Activity [29]: Active
- Activity [30]: 17.3%
- Activity [31]: 14.2%
- Activity [32]: Dose-Dependent Effect
- Activity [33]: 80%
- Activity [34]: Tde
- Activity [35]: Non-Toxic
